What is called Km is the concentration of substrate that gives half-maximal velocity. One may read the kcat as the number of substrate molecules converted per active site and unit of time at saturation.

Numbering of substitutions follows the chain as printed.

Here are results for two compounds from PMC3885546, “Structural Determinants of the 5′-Methylthioinosine Specificity of Plasmodium Purine Nucleoside Phosphorylase” (PLoS ONE, 2014).

Holding throughout (assay): Substrate kinetics, coupled assay
Format in all cases: biochemical

For test [1], the target named is T1, PfPNP V66I/V73I/Y160F (Plasmodium falciparum, UniProt Q8I3X4, V66I/V73I/Y160F).
T1 construct: made in house; host or cells: Escherichia coli Top 10
T1 sequence (Q8I3X4 1-245 V66I/V73I/Y160F): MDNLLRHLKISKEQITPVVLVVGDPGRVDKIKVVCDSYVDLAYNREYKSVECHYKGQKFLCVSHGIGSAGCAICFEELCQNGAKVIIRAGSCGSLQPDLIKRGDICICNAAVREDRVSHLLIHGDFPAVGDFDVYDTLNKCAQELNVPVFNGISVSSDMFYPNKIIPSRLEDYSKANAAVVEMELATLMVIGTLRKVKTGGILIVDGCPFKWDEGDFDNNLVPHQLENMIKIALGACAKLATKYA
As to conditions: for Ino/MTI kcat/Km Ratio / Km / kcat: V66I/V73I/Y160F PfPNP; for Km / kcat: substrate = label. On the procedure: (§1) Kinetic assays were completed in 50 mM KH2PO4 at pH 7.4 measuring phosphorylysis of inosine or MTI by PNP in a coupled reaction with 60 milliunits/ml xanthine oxidase to convert hypoxanthine to uric acid. Formation of uric acid was measured at 293 nm wavelength (E293 = 12.9 mM^−1 cm^−1), [20]. In cases where activity for MTI was low, increased protein concentration (10 µg/ml) was used to check enzyme function. Assays were performed with excess substrate in the presence of inhibitors. Inhibition studies measured both initial (Ki) and slow onset inhibition (Ki*) for inhibitors. The initial onset inhibition was analyzed by using the following equation: ν ο = (k cat×S)/(K m(1+I/Ki)+S), ν ο is the steady state rate, k cat catalytic rate, S is substrate concentration, Km is Michealis constant for inosine, I is inhibitor concentration, and Ki is the equilibrium dissociation constant.

Test [2] addresses T2, PfPNP His7Ser (Plasmodium falciparum, UniProt Q8I3X4, H7S).
T2 construct: made in house; host or cells: Escherichia coli Top 10
T2 sequence (Q8I3X4 1-245 H7S): T1 sequence (Q8I3X4 1-245 V66I/V73I/Y160F) with H7S, I66V, I73V, F160Y
The conditions noted are these: for Km / kcat: substrate = label. Here is the method: as §1

Test [3] concerns the target T3, PfPNP Tyr160Phe (Plasmodium falciparum, UniProt Q8I3X4, Y160F).
T3 construct: made in house; host or cells: Escherichia coli Top 10
T3 sequence (Q8I3X4 1-245 Y160F): T1 sequence (Q8I3X4 1-245 V66I/V73I/Y160F) with I66V, I73V
The conditions noted are these: for Km / kcat: substrate = label. On the procedure:
as §1

The target of test [4] is T4, PfPNP Val66Ser (Plasmodium falciparum, UniProt Q8I3X4, V66S).
T4 construct: made in house; host or cells: Escherichia coli Top 10
T4 sequence (Q8I3X4 1-245 V66S): T1 sequence (Q8I3X4 1-245 V66I/V73I/Y160F) with I66S, I73V, F160Y
As to conditions: for Km / kcat: substrate = label. Here is the method: as §1

Test [5] addresses T5, PfPNP Val73Ser (Plasmodium falciparum, UniProt Q8I3X4, V73S).
T5 construct: made in house; host or cells: Escherichia coli Top 10
T5 sequence (Q8I3X4 1-245 V73S): T1 sequence (Q8I3X4 1-245 V66I/V73I/Y160F) with I66V, I73S, F160Y
As to conditions: for Km / kcat: substrate = label. Here is the method:
as §1

Test [6] deals with T6, PfPNP Val73Ala (Plasmodium falciparum, UniProt Q8I3X4, V73A).
T6 construct: made in house; host or cells: Escherichia coli Top 10
T6 sequence (Q8I3X4 1-245 V73A): T1 sequence (Q8I3X4 1-245 V66I/V73I/Y160F) with I66V, I73A, F160Y
The conditions noted are these: for Km / kcat: substrate = label. On the procedure:
as §1

In test [7] the target is T7, PfPNP Val66Ile/Val73Ile (Plasmodium falciparum, UniProt Q8I3X4, V66I/V73I).
T7 construct: made in house; host or cells: Escherichia coli Top 10
T7 sequence (Q8I3X4 1-245 V66I/V73I): T1 sequence (Q8I3X4 1-245 V66I/V73I/Y160F) with F160Y
As to conditions: for Km / kcat: substrate = label. Here is the method:
as §1

[8] abbreviates: V66I:V73I:Y160F PfPNP versus wild type.

On to `OC[C@H]1O[C@@H](n2cnc3c(O)ncnc32)[C@H](O)[C@@H]1O` [Inosine, inosine], for which the “Ino/MTI kcat/Km Ratio” value came out at 160 in test [1]; 0.1 in test [2]; 12 in test [3]; 0.06 in test [4]; 4100 in test [5]; 1.6 in test [6]. Further, in test [7], the “Ino/MTI kcat/Km Ratio” value came to 2.7. Moreover, the Km in test [1] was determined as 4 ± 1.8 µM; in test [2], 14 ± 3 µM; in test [3], 2.5 ± 1.2 µM; in test [4], 78 ± 4 µM; in test [5] it was 0.005 mM; in test [6], 7 ± 4 µM. Further, the Km in test [7] came to 28 ± 11 µM. The kcat worked out at 0.36 ± 0.23 s⁻¹ in test [1]; 0.5 ± 0.3 s⁻¹ in test [2]; 0.21 ± 0.02 s⁻¹ in test [3]; 1.4 ± 1.7 s⁻¹ in test [4]; 0.2 ± 0.0 s⁻¹ in test [5]; 1.1 ± 0.1 s⁻¹ in test [6]. Also, the kcat in test [7] came to 4.6 ± 0.6 s⁻¹.
Consider 5′-methylthioinosine, for which the “Ino/MTI kcat/Km Ratio” value in test [1] turned out to be 160. Further, the Km in test [1] was 18 ± 6 µM; in test [2] it was 3.2 ± 2.7 µM; in test [3] it was 44 ± 5 µM; in test [4], 0.7 ± 0.7 µM; in test [5], 2.1 mM; in test [6], 20 ± 10 µM. In addition, the Km in test [7] came out at 15 ± 5 µM. For the same compound, the kcat in test [1] amounted to 0.01 ± 0.00 s⁻¹; in test [2] it was 0.88 ± 0.30 s⁻¹; in test [3], 0.30 ± 0.04 s⁻¹; in test [4], 0.21 ± 0.05 s⁻¹; in test [5], 0.02 ± 0 s⁻¹; in test [6] it was 1.9 ± 0.3 s⁻¹. The kcat in test [7] was 0.91 ± 0.20 s⁻¹. In test [1] (setting [8]), this compound returned a decrease in kcat of 83 fold. Besides, the “increase in Km” value in test [1] (setting [8]) is 2 fold.
